Tests used:
[1] = test system: Arabidopsis thaliana third true leaf; experiment: Ploidy analysis of leaf 3 by flow cytometry (endoreduplication onset); format: in vivo; conditions: transfer at 9 DAS to 25 mM mannitol or 5 μM ACC
Procedure: Arabidopsis seedlings were germinated and grown on nylon meshes overlaying control medium until 9 days after stratification (DAS), when the third true leaf is fully proliferating (Skirycz et al., 2010), and subsequently transferred to control or mannitol-containing medium (FIGS. 1A to 10). Kinematic analysis was performed, whereby leaves were harvested daily throughout development of leaf 3 (9-20 DAS) and based on drawings of the abaxial epidermis cell number, cell area, number of guard cells and cell division and cell expansion rates were calculated (De Veylder et al., 2001). […] Leaf and plant morphology were not altered by mannitol (FIG. 2C). Cell expansion was also affected by stress and the reduced final leaf area was a combination of fewer and smaller cells (FIG. 2D). The stomatal index, which represents the number of stomata as a fraction of the total number of cells, was reduced as well (FIG. 2E). To learn more about the mechanisms underlying the rapid reduction of cell division upon stress onset, we harvested leaf samples daily after transfer. […]
For flow cytometry analysis, nuclei were extracted by chopping 4-32 leaves with a razor blade in 1 ml of 45 mM MgCl2, 30 mM sodium citrate, 20 mM 3-(N-morpholino)propanesulfonic acid, pH 7, and 1% Triton X-100 (Galbraith et al., 1983). […] The nuclei were analyzed with a CyFlow flow cytometer with the FloMax Software (Partec).

[2] = test system: Arabidopsis thaliana third true leaf; experiment: Growth (kinematic) analysis of the third leaf after transfer of seedlings to mannitol- or ACC-containing medium; format: in vivo; conditions: for reduction in leaf area: 72 h after transfer to mannitol (12 DAS)
Procedure: Arabidopsis seedlings were germinated and grown on nylon meshes overlaying control medium until 9 days after stratification (DAS), when the third true leaf is fully proliferating (Skirycz et al., 2010), and subsequently transferred to control or mannitol-containing medium (FIGS. 1A to 10). Kinematic analysis was performed, whereby leaves were harvested daily throughout development of leaf 3 (9-20 DAS) and based on drawings of the abaxial epidermis cell number, cell area, number of guard cells and cell division and cell expansion rates were calculated (De Veylder et al., 2001). […] Leaf and plant morphology were not altered by mannitol (FIG. 2C). Cell expansion was also affected by stress and the reduced final leaf area was a combination of fewer and smaller cells (FIG. 2D). The stomatal index, which represents the number of stomata as a fraction of the total number of cells, was reduced as well (FIG. 2E). To learn more about the mechanisms underlying the rapid reduction of cell division upon stress onset, we harvested leaf samples daily after transfer. As a measure of cellular differentiation, the ploidy distribution was examined by flow cytometry. […] In stressed leaves, 4C nuclei started to accumulate approximately one day earlier than in controls at the expense of 2C nuclei (FIG. 3A). Analogously, the number of 8C nuclei increased sharply at 14 DAS in stressed leaves, but only at 15 DAS in control samples (FIG. 3A). Again, transfer itself had no effect on ploidy levels (not shown). […] This observation was further investigated with a CYCB1;1:Dbox-GUS reporter line. Staining for CYCB1;1:Dbox-GUS activity visualizes cells at the G2-to-M transition, reflecting mitotic activity (Colón-Carmona et al., 1999). The most apparent differences were observed 48 h after transfer. […] While the relative size of the cell proliferation zone was similar in mannitol-treated leaves, the remaining proliferating cells were found in a dispersed pattern throughout this zone. […] Within a few days after transfer, division rates adapted to the new conditions and compensation effects were observed.
Seedlings of Arabidopsis thaliana (L.) Heyhn. ecotype Columbia-0 (Col-0) were grown in vitro in half-strength Murashige and Skoog medium (Murashige and Skoog, 1962), supplemented with 1% sucrose under a 16-h day (110 μmol m^−2 s^−1) and 8-h night regime. Plates were overlaid with nylon mesh (Prosep, Zaventem, Belgium) of 20 μm pore size to avoid that roots grew into the medium. Depending on the experiment, 32 or 64 seeds were equally distributed on a 150-mm diameter plate. Mutant plants were grown together with their wild-type controls on the same plate.
At 9 DAS, when the third leaf is fully proliferating, seedlings were transferred to plates containing control medium or medium supplemented with 25 mM mannitol (Sigma-Aldrich) or 5 μM ACC (Sigma-Aldrich) by gently lifting the nylon mesh with forceps. For the CDKA activity assay the transfer was done at 11 DAS; at this stage, the third leaf is still dividing and can be quickly harvested without the need for RNAlater solution (see below) that would inhibit CDKA activity. All transfers were performed 2-3 h into the day.
Growth analysis was performed on the third true leaf harvested at different time points after transfer. After clearing with 70% ethanol, leaves were mounted in lactic acid on microscopic slides. For each experiment, 8-12 leaves were photographed with a binocular, and epidermal cells (40-300) were drawn for four representative leaves with a DMLB microscope (Leica) fitted with a drawing tubus and a differential interference contrast objective. Photographs of leaves and drawings were used to measure leaf and cell area, respectively, with ImageJ v1.41o (NIH; http://rsb.info.nih.gov/ij/), from which the cell numbers were calculated. The stomatal index was defined as the percentage of stomata per all cells. […]

[3] = transfer at 9 DAS to 25 mM mannitol or 5 μM ACC, leaf 3

OC[C@@H](O)[C@@H](O)[C@H](O)[C@H](O)CO [mannitol]
endoreduplication onset [1]: faster onset of endoreduplication | leaf and plant morphology ([2]; 25 mM mannitol): not altered | reduction of leaf area ([2]; 25 mM mannitol in growth medium): approximately 50% | reduction in leaf area ([2]; ein5.1 mutant): ~20% | reduction in leaf area ([2]; etr1.3 mutant): ~30% | cell proliferation rates [2, 3]: reduced proliferation rates | stomatal index [2, 3]: reduced | reduction in leaf area ([2]; wild type): ~45%

From patent US20140130208A1, “METHODS AND MEANS TO PRODUCE ABIOTIC STRESS TOLERANT PLANTS” (VIB VZW, priority 2011, published 2014)
